US6903086B2, “Alkoxycarbonylamino benzoic acid or alkoxycarbonylamino tetrazolyl phenyl derivatives as IP antagonists” (SYNTEX (U.S.A.) LLC, priority 2001, dated 2005)

melting point | Compound
225.9 to 226.2 °C | O=C(Nc1ccc(-c2ccccc2)cc1C(=O)O)OCc1cc2cc(-c3ccccc3)ccc2o1 [compound 10, 4-(5-phenyl-benzofuran-2-ylmethoxycarbonylamino)-biphenyl-3-carboxylic acid]
229.5 to 230 °C | O=C(Nc1cc(-c2ccccc2)ccc1C(=O)O)OCc1cc2cc(-c3ccccc3)ccc2o1 [compound 11, 3-(5-phenyl-benzofuran-2-ylmethoxycarbonylamino)-biphenyl-4-carboxylic acid]
229.4 to 229.6 °C | O=C(Nc1ccc(-c2ccc(F)cc2)cc1C(=O)O)OCc1cc2cc(-c3ccccc3)ccc2o1 [compound 12, 4′-fluoro-4-(5-phenyl-benzofuran-2-ylmethoxycarbonylamino)-biphenyl-3-carboxylic acid]
229.5 to 230 °C | O=C(Nc1ccc(-c2ccsc2)cc1C(=O)O)OCc1cc2cc(-c3ccccc3)ccc2o1 [compound 13, 2-(5-phenyl-benzofuran-2-ylmethoxycarbonylamino)-5-thiophen-3-yl-benzoic acid]
235.1 to 235.7 °C | O=C(Nc1ccc(-c2ccc(F)cc2)cc1C(=O)O)OCc1cc2cc(-c3ccc(F)cc3)ccc2o1 [compound 14, 4′-fluoro-4-[5-(4-fluoro-phenyl)-benzofuran-2-ylmethoxycarbonylamino]-biphenyl-3-carboxylic acid]
231.3 to 231.6 °C | O=C(Nc1ccc(-c2ccccc2)cc1C(=O)O)OCc1cc2cc(-c3ccc(F)cc3)ccc2o1 [compound 15, 4-[5-(4-fluoro-phenyl)-benzofuran-2-ylmethoxycarbonylamino]-biphenyl-3-carboxylic acid]
225.7 to 229.3 °C | O=C(Nc1ccc(-c2cccnc2)cc1C(=O)O)OCc1cc2cc(-c3ccc(F)cc3)ccc2o1 [compound 16, 2-[5-(4-fluoro-phenyl)-benzofuran-2-ylmethoxycarbonylamino]-5-pyridin-3-yl-benzoic acid]
203.6 to 203.8 °C | O=C(Nc1ccccc1C(=O)O)OCc1cc2cc(-c3ccccc3)ccc2o1 [compound 17, 2-(5-phenyl-benzofuran-2-ylmethoxycarbonylamino)-benzoic acid]
225.6 to 225.8 °C | O=C(Nc1cc2ccccc2cc1C(=O)O)OCc1cc2cc(-c3ccccc3)ccc2o1 [compound 18, 3-(5-phenyl-benzofuran-2-ylmethoxycarbonylamino)-naphthalene-2-carboxylic acid]
221.2 to 222 °C | O=C(Nc1ccc(Br)cc1C(=O)O)OCc1cc2cc(-c3ccccc3)ccc2o1 [compound 19, 5-bromo-2-(5-phenyl-benzofuran-2-ylmethoxycarbonylamino)-benzoic acid]
234 to 235 °C | CS(=O)(=O)c1ccc(NC(=O)OCc2cc3cc(-c4ccccc4)ccc3o2)c(C(=O)O)c1 [compound 20, 5-methanesulfonyl-2-(5-phenyl-benzofuran-2-ylmethoxycarbonylamino)-benzoic acid]
213.9 to 214.5 °C | N#Cc1ccc(NC(=O)OCc2cc3cc(-c4ccccc4)ccc3o2)c(C(=O)O)c1 [compound 21, 5-cyano-2-(5-phenyl-benzofuran-2-ylmethoxycarbonylamino)-benzoic acid]
177.7 to 178.5 °C | O=C(Nc1c(Cl)cc(Cl)cc1C(=O)O)OCc1cc2cc(-c3ccc(F)cc3)ccc2o1 [compound 22, 3,5-dichloro-2-[5-(4-fluoro-phenyl)-benzofuran-2-ylmethoxycarbonylamino]-benzoic acid]
210 to 211.9 °C | O=C(Nc1ccc(F)cc1C(=O)O)OCc1cc2cc(-c3ccc(F)cc3)ccc2o1 [compound 23, 5-fluoro-2-[5-(4-fluoro-phenyl)-benzofuran-2-ylmethoxycarbonylamino]-benzoic acid]
216.7 to 217.3 °C | O=C(Nc1ccc(Cl)cc1C(=O)O)OCc1cc2cc(-c3ccc(F)cc3)ccc2o1 [compound 24, 5-chloro-2-[5-(4-fluoro-phenyl)-benzofuran-2-ylmethoxycarbonylamino]-benzoic acid]
216.7 to 217.3 °C | O=C(Nc1cccc(Cl)c1C(=O)O)OCc1cc2cc(-c3ccc(F)cc3)ccc2o1 [compound 25, 2-chloro-6-[5-(4-fluoro-phenyl)-benzofuran-2-ylmethoxycarbonylamino]-benzoic acid]
220.3 to 220.6 °C | O=C(Nc1ccc(Br)cc1C(=O)O)OCc1cc2cc(-c3ccc(F)cc3)ccc2o1 [compound 26, 5-bromo-2-[5-(4-fluoro-phenyl)-benzofuran-2-ylmethoxycarbonylamino]-benzoic acid]
176.1 to 178.8 °C | Cc1cccc(NC(=O)OCc2cc3cc(-c4ccc(F)cc4)ccc3o2)c1C(=O)O [compound 27, 2-[5-(4-fluoro-phenyl)-benzofuran-2-ylmethoxycarbonylamino]-6-methyl-benzoic acid]
190.8 to 191.9 °C | Cc1ccc(NC(=O)OCc2cc3cc(-c4ccc(F)cc4)ccc3o2)c(C(=O)O)c1 [compound 28, 2-[5-(4-fluoro-phenyl)-benzofuran-2-ylmethoxycarbonylamino]-5-methyl-benzoic acid]
160.5 to 164.3 °C | COc1cccc(NC(=O)OCc2cc3cc(-c4ccc(F)cc4)ccc3o2)c1C(=O)O [compound 29, 2-[5-(4-fluoro-phenyl)-benzofuran-2-ylmethoxycarbonylamino]-6-methoxy-benzoic acid]

melting point | Compound
191.5 to 191.9 °C | O=C(Nc1cccc([N+](=O)[O-])c1C(=O)O)OCc1cc2cc(-c3ccc(F)cc3)ccc2o1 [compound 30, 2-[5-(4-fluoro-phenyl)-benzofuran-2-ylmethoxycarbonylamino]-6-nitro-benzoic acid]
213.2 to 215.1 °C | Cc1ccc(NC(=O)OCc2cc3cc(-c4ccsc4)ccc3o2)c(C(=O)O)c1 [compound 31, 5-methyl-2-(5-thiophen-3-yl-benzofuran-2-ylmethoxycarbonylamino)-benzoic acid]
213.2 to 215.1 °C | O=C(Nc1ccc(-c2ccc(F)cc2)cc1C(=O)O)OCc1cc2cc(-c3ccsc3)ccc2o1 [compound 32, 4′-fluoro-4-(5-thiophen-3-yl-benzofuran-2-ylmethoxycarbonylamino)-biphenyl-3-carboxylic acid]
150 °C (dec.) | N#Cc1cccc(NC(=O)OCc2cc3cc(-c4ccc(F)cc4)ccc3o2)c1C(=O)O [compound 33, 2-cyano-6-[5-(4-fluoro-phenyl)-benzofuran-2-ylmethoxycarbonylamino]-benzoic acid]
237.1 to 237.5 °C | O=C(Nc1ccc(-c2ccc(F)cc2)cc1C(=O)O)OCc1cc2cc(-c3cccnc3)ccc2o1 [compound 34, 4′-fluoro-4-(5-pyridin-3-yl-benzofuran-2-ylmethoxycarbonylamino)-biphenyl-3-carboxylic acid]
200.1 to 200.4 °C | Cc1ccc(NC(=O)OCc2cc3cc(-c4cccnc4)ccc3o2)c(C(=O)O)c1 [compound 35, 5-methyl-2-(5-pyridin-3-yl-benzofuran-2-ylmethoxycarbonylamino)-benzoic acid]
172 to 174 °C | O=C(Nc1cccc(Cl)c1C(=O)O)OCc1cc2cc(-c3cccnc3)ccc2o1 [compound 36, 2-chloro-6-(5-pyridin-3-yl-benzofuran-2-ylmethoxycarbonylamino)-benzoic acid]
192.8 to 194.3 °C | O=C(Nc1cccc(Cl)c1C(=O)O)OCc1cc2cc(-c3cncnc3)ccc2o1 [compound 37, 2-chloro-6-(5-pyrimidin-5-yl-benzofuran-2-ylmethoxycarbonylamino)-benzoic acid]
134.8 to 144.1 °C | O=C(Nc1cccc(Cl)c1C(=O)O)OCc1cc2cc(-c3ccccn3)ccc2o1 [compound 38, 2-chloro-6-(5-pyridin-2-yl-benzofuran-2-ylmethoxycarbonylamino)-benzoic acid]
212 to 214.1 °C | O=C(Nc1cccc(Cl)c1C(=O)O)OCc1cc2cc(-c3cnccn3)ccc2o1 [compound 39, 2-chloro-6-(5-pyrazin-2-yl-benzofuran-2-ylmethoxycarbonylamino)-benzoic acid]
179 to 182.2 °C | O=C(Nc1cccc(Cl)c1C(=O)O)OCc1cc2cc(-c3ccnnc3)ccc2o1 [compound 40, 2-chloro-6-(5-pyridazin-4-yl-benzofuran-2-ylmethoxycarbonylamino)-benzoic acid]
213.9 to 214.5 °C | Cc1cc(Br)ccc1NC(=O)OCc1cc2cc(-c3cccnc3)ccc2o1 [compound 41, (4-bromo-2-methyl-phenyl)-carbamic acid 5-pyridin-3-yl-benzofuran-2-ylmethyl ester]
170.6 to 172 °C | O=C(Nc1cccc(Br)c1C(=O)O)OCc1cc2cc(-c3ccc(F)cc3)ccc2o1 [compound 42, 2-bromo-6-[5-(4-fluoro-phenyl)-benzofuran-2-ylmethoxycarbonylamino]-benzoic acid]
169.5 to 170.9 °C | O=C(O)Cc1ccccc1NC(=O)OCc1cc2cc(-c3ccccc3)ccc2o1 [compound 42, [2-(5-phenyl-benzofuran-2-ylmethoxycarbonylamino)-phenyl]-acetic acid]
174.5 to 177.2 °C | O=C(Nc1ccc2ccccc2c1C(=O)O)OCc1cc2cc(-c3ccccc3)ccc2o1 [compound 201, 2-(5-phenyl-benzofuran-2-ylmethoxycarbonylamino)-naphthalene-1-carboxylic acid]
204.5 to 205 °C | O=C(Nc1ccc2ccccc2c1C(=O)O)OCc1cc2cc(-c3ccc(F)cc3)ccc2o1 [compound 202, 2-[5-(4-fluoro-phenyl)-benzofuran-2-ylmethoxycarbonylamino]-naphthalene-1-carboxylic acid]
195 to 196.5 °C | CC(C)Oc1ccc(NC(=O)OCc2cc3cc(-c4ccc(F)cc4)ccc3o2)c(C(=O)O)c1 [compound 301, 2-[5-(4-fluoro-phenyl)-benzofuran-2-ylmethoxycarbonylamino]-5-isopropoxy-benzoic acid]
235.7 to 238.9 °C | O=C(Nc1cc(C(=O)O)cc(-c2ccccc2)c1)OCc1cc2cc(-c3ccccc3)ccc2o1 [compound 401, 5-(5-phenyl-benzofuran-2-ylmethoxycarbonylamino)-biphenyl-3-carboxylic acid]
180 to 183 °C | O=C(Nc1ccc(-c2ccccc2)cc1-c1nnn[nH]1)OCc1cc2cc(-c3ccccc3)ccc2o1 [compound 501]
